For data set [1], the system named is Plasmodium falciparum. Nature of the data set: Antimalarial activity against Plasmodium falciparum CH12. The format is functional, organism-based.
Data set [2] has as its system Plasmodium falciparum. As to the kind of experiment: Antimalarial activity against Plasmodium falciparum GA3. The format is functional, organism-based.
A short description of data set [3]: Oral bioavailability in rat. It counts as ADME, organism-based. Particulars: in vivo.
The test system of data set [4] is Cavia porcellus. Nature of the data set: Hypoglycemic activity in sc dosed guinea pig assessed as glucose lowering effect. The format is functional.
A short description of data set [5]: Half life in po dosed human. It counts as ADME, organism-based. Particulars: in vivo.
A short description of data set [6]: Inhibition of Plasmodium knowlesi DHFR.
The test system of data set [7] is Plasmodium berghei. Nature of the data set: Potency index, ratio of chloroquine ED50 to test compound ED50 for antimalarial activity against Plasmodium berghei infected in mouse. The format is functional.
For data set [8], the system named is Plasmodium berghei. Nature of the data set: Potency index, ratio of cycloguanil ED50 to test compound ED50 for antimalarial activity against Plasmodium berghei infected in mouse. The format is functional.
Data set [9] is described as follows: Toxicity in rat. Particulars: in vivo.
Data set [10] can be described thus: Toxicity in po dosed mouse. It counts as organism-based. Particulars: in vivo.
Data set [11] can be described thus: Toxicity in sc dosed mouse. The format is organism-based. Particulars: in vivo.
Data set [12] concerns MCF7. Nature of the data set: Cytotoxicity against human MCF7 cells assessed as reduction in breast cancer stem cells at 1 mM after 48 hrs (reference value: 2.78%). The format is functional. Further details: scale not given: the % may be the effect or the level left.
The subject of data set [13] is MCF7. Nature of the data set: Cytotoxicity against human MCF7 cells assessed as reduction in breast cancer stem cells at 5 mM after 48 hrs (reference value: 2.78%). It counts as functional. Further details: scale not given: the % may be the effect or the level left.
Data set [14] concerns SW-620. As to the kind of experiment: Synergistic antiproliferative activity against human SW620 cells assessed as reduction in cancer stem cells preincubated for 24 hrs followed by 5-FU addition and measured after 48 hrs (reference value: 21.30 +/- 1.40 %). It counts as functional. Also noted: scale not given: the % may be the effect or the level left.
The species entered for data set [15] is Homo sapiens. As to the kind of experiment: Antidiabetic activity in human assessed as reduction in hepatic glucose output. Also noted: scale not given: the % may be the effect or the level left. The format is functional.
Data set [16] has as its system Streptococcus pyogenes. Nature of the data set: Antibacterial activity against Streptococcus pyogenes. The format is functional.
The test system of data set [17] is Streptococcus. As to the kind of experiment: Antibacterial activity against Streptococcus beta-haemolyticus. The format is functional.
Data set [18] has as its system Clostridium septicum. As to the kind of experiment: Antibacterial activity against Clostridium septicum. It counts as functional.

≈ marks a conversion by molar mass, not a printed value.

The term IC50 denotes the concentration at which inhibition is half-maximal. Turning to `CC(C)/N=C(N)/N=C(\N)NOCCCOc1cc(Cl)c(Cl)cc1Cl`, the IC50 is 326 ng/mL (≈ 0.822 µM) in [1] and 0.532 µg/mL (≈ 1.34 µM) in data set [2].

Broadly, the bioavailability is dose-corrected exposure relative to a reference, in per cent. As to `CC1(C)N=C(N)N=C(N)N1OCCCOc1cc(Cl)c(Cl)cc1Cl`, the bioavailability in data set [3] was not above 1%. In addition, inhibition in data set [1] was half-maximal at 0.05 ng/mL (≈ 0.000127 µM) (IC50).

Consider `CCCCNC(=N)NC(=N)N` [BUFORMIN], for which the MED in data set [4] is 20 mg.

By half-life is commonly meant how long it takes for the measured level to halve. As for `CC(C)NC(=N)NC(=N)Nc1ccc(Cl)c(Cl)c1` [CHLORPROGUANIL], the half-life in data set [5] is 35 h.

Usually EC50 stands for the midpoint of the concentration-response curve. `CC1(C)N=C(N)N=C(N)N1OCc1ccc(Cl)c(Cl)c1` [CLOCIGUANIL] displayed a concentration for a half-maximal effect (EC50) in data set [6] of 1 pM. The “Ratio ED50” value was 10 in data set [7] and 30 in data set [8].

As usually defined, the LD50 is the dose at which mortality reaches 50%. Consider `CN(C)C(=N)NC(=N)N` [METFORMIN], for which the values for the LD50 in data set [9], in [10] and in data set [11] were 1000 mg/kg, 1450 mg/kg and 2200 mg/kg, respectively. Further, the Activity in [12] is given as 2.2%; in data set [13], 1.29%; in data set [14], 15.13%; in data set [15], “>=75%”. Besides, the MED in data set [4] came out at 75 mg.

On to `N=C(N)/N=C(\N)N1CCOCC1` [MOROXYDINE], for which the LD50 in data set [10] is more than 6250 mg/kg; in [11], 225 mg/kg.

Take `N=C(N)NC(=N)NCCc1ccccc1` [PHENFORMIN]: in data set [4], the MED is 7.5 mg.

As usually defined, the MIC is the smallest concentration in the dilution series that meets the test's criterion for growth inhibition. Turning to `N=C(NC(=N)N1CCN(C(=N)NC(=N)Nc2ccc(Cl)cc2)CC1)Nc1ccc(Cl)cc1` [PICLOXYDINE], the figures for the MIC in data set [16], in data set [17] and in [18] were 760 µg/mL (≈ 1600 µM), 760 µg/mL (≈ 1600 µM) and 300 µg/mL (≈ 631 µM), respectively.

Values taken from ChEMBL document CHEMBL5241091, “Biguanides drugs: Past success stories and promising future for drug discovery” (Eur J Med Chem, 2021).
